Test results reported in ChEMBL document CHEMBL1127366, “Structure--activity relationships of sialyl Lewis x-containing oligosaccharides. 1. Effect of modifications of the fucose moiety” (J Med Chem, 1994).

Target: T1, E-selectin (Homo sapiens, UniProt P16581)
T1 sequence (P16581 whole entry): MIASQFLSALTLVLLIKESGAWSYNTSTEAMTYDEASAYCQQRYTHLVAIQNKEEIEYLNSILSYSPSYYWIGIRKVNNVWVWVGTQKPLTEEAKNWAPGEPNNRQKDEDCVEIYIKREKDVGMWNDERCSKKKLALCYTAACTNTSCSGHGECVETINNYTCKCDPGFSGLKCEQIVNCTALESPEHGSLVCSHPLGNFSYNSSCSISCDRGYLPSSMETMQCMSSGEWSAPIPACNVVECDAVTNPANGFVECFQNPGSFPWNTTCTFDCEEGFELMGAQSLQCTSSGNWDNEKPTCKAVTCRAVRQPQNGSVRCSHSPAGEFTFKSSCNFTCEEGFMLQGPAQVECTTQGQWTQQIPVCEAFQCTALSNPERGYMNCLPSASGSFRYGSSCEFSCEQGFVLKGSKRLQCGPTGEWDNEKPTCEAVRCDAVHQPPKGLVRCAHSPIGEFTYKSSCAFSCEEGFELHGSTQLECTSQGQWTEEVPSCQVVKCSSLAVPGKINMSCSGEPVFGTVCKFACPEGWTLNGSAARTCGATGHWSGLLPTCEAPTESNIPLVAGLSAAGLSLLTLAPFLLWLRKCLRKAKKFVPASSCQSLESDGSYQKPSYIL
Assay: Tested for inhibition of cell adhesion of HL-60 containing SLeX to purified recombinant human E-selectin

CCO[C@@H]1O[C@@H](CO)[C@H](O)[C@H](O[C@@H]2O[C@@H](CO)[C@@H](O[C@@H]3O[C@@H](CO)[C@H](O)[C@H](O[C@]4(C(=O)ON)C[C@@H](O)[C@@H](NC(C)=O)C([C@H](O)[C@H](O)CO)O4)[C@@H]3O)[C@H](O[C@@H]3OC[C@@H](O)[C@H](O)[C@@H]3O)[C@@H]2NC(C)=O)[C@@H]1O (stereo partly specified)
IC50: 5 mM
